Tested on: elk sperm
Assay: Post thaw DNA fragmentation of elk sperm (Example 3)
Type: cell-based
Procedure: Each of deer and elk were collected in the Tris-egg yolk catch fluid described as a catch media in Example 1, and shipped for sorting.
A portion of each of the deer and the elk were stained by the red food dye No. 40 treatment 40% with 16 μL Hoechst 33342 and the yellow food dye No. 6 treatment with 14 μL Hoechst 33342 as described in Example 1.
Samples were each bulk sorted with the same machine and parameters described in Example 1. Both sorted X and sorted Y sperm were collected into a single catch. The sorted samples were then frozen like those described in Example 1.
Frozen thawed samples were then tested for post thaw motilities and post thaw DNA fragmentation. Post thaw motilities were slightly higher in Elk sorted with a yellow quencher, while a more significant difference existed in progressive motility. In Table 10, post thaw DNA fragmentation in Elk can be seen at about double after 48 hours when red food dye No. 40 is compared to yellow food dye No. 6 as a dead quencher.

Row | Post Thaw DNA fragmentation Elk, Post Sort (elk, 0 h) [%] | Post Thaw DNA fragmentation Elk, Pre-sort (elk, 0 h) [%] | Post Thaw DNA fragmentation Elk, Post Sort (elk, 24 h) [%] | Post Thaw DNA fragmentation Elk, Pre-sort (elk, 24 h) [%] | Post Thaw DNA fragmentation Elk, Post Sort (elk, 48 h) [%] | Post Thaw DNA fragmentation Elk, Pre-sort (elk, 48 h) [%] | Post Thaw DNA fragmentation Elk, Post Sort (0 HR, unit assumed) [%] | Post Thaw DNA fragmentation Elk, Pre-sort (0 HR, unit assumed) [%] | Post Thaw DNA fragmentation Elk, Post Sort (24 HR, unit assumed) [%] | Post Thaw DNA fragmentation Elk, Pre-sort (24 HR, unit assumed) [%] | Post Thaw DNA fragmentation Elk, Post Sort (48 HR, unit assumed) [%] | Post Thaw DNA fragmentation Elk, Pre-sort (48 HR, unit assumed) [%] | Compound
1 | 0 | 2.3 | 0.3 | 5.6 | 0.7 | 6 | – | – | – | – | – | – | COc1cc(S(=O)(=O)O)c(C)cc1N=Nc1c(O)ccc2cc(S(=O)(=O)O)ccc12 [Red 40, 6-hydroxy-5-[(2-methoxy-5-methyl-4-sulfophenyl)azo]-2-naphthalenesulfonic acid, reference compound]
2 | – | – | – | – | – | – | 0 | 2.3 | 0 | 3.3 | 0.3 | 3.7 | O=S(=O)([O-])c1ccc(N=Nc2c(O)ccc3cc(S(=O)(=O)[O-])ccc23)cc1.[Na+].[Na+] [Yellow 6, Disodium 6-hydroxy-5-[(4-sulfophenyl)azo]-2-naphthalenesulfononate]

— US9140688B2, “Sperm staining and sorting methods” (INGURAN, LLC, priority 2011, dated 2015)
